Results on 1 compound are retold here after US20190046490A1, “METHODS OF TREATING LACTOSE INTOLERANCE” (Nogra Pharma Limited, priority 2016, published 2019).

The test system of experiment [1] is LCT mRNA. The experiment can be described thus: Quantitative PCR of LCT mRNA expression in Caco-2 cells. Format: cell-based, human. As to the method: Caco-2 (colonic adenocarcinoma) cells were grown in Dulbecco's Modified Eagle's Medium (DMEM, Invitrogen, Life Technologies, Cergy-Pontoise, France) supplemented with 20% foetal calf serum (FCS, Dutscher, Brumath, France), 1% penicillin-streptomycin (5 ml/l) (Invitrogen, Life technologies) and 1% non-essential amino acids (5 ml/l) (Invitrogen, Life technologies). All cell lines were cultured as confluent monolayers at 37° C. in a controlled, 5% CO2 atmosphere.
For cell stimulations, 1×10^6 cells per well were seeded in 6-well plates. Cells were serum deprived for 16 hours prior to stimulation in order to synchronize the cells. Cells were treated with GED (Nogra Pharma Ltd, Ireland), pioglitazone (1 μM, Sigma-Aldrich) or CLA (various concentrations, Sigma-Aldrich). When necessary, the DMSO vehicle (Sigma-Aldrich) was used as control. After 24 hours of stimulation, cells were washed three times with sterile PBS before RNA extraction. Cell stimulations were performed in 4 replicates for microarray analysis and in 3, 4 or 6 replicates for other stimulations.
Cells were lysed with lysis buffer (RA1, Macherey-Nagel) containing 1% β-mercaptoethanol. Total RNA was extracted with a Nucleospin RNA kit (Macherey-Nagel, Hoerdt, France). After RNAse inactivation, total RNA was cleaned of genomic DNA traces by DNAse treatment and eluted in RNAse-free, DEPC-water. The purity of the RNA was evaluated by UV spectroscopy on a Nanodrop system (Nyxor Biotech, Paris, France) from 220 to 350 nm. Before microarray experiments, RNAs were also profiled on an Agilent 2100 bioanalyzer. One μg of total RNA with a minimum concentration of 50 ng/μl was used in the microarray and qRT-PCR analysis.
Expression of genes of interest was quantified by quantitative PCR (qPCR) of corresponding reverse transcribed mRNA. One μg of total RNA was reverse-transcribed into cDNA using the High Capacity cDNA Archive kit (Applied Biosystems). Amplification was performed using an ABI PRISM 7000 sequence detection system (Applied Biosystem) using Power SYBR® Green PCR master Mix (Applied Biosystem). Primer pairs for each human transcript were chosen with qPrimer depot software (at primerdepot.nci.nih.gov.). Quantification of qPCR signals was performed using ΔCt relative quantification method using GAPDH as a reference gene for human and rat samples and β-Actin for mouse samples. Values were represented in terms of relative quantity of mRNA level variation or fold increase compared to control conditions.

Experiment [2] deals with lactase. The experiment can be described thus: Lactase expression and activity in short term cultures of human duodenal biopsies. It is filed as cell-based. The note with it: exposure for 6 hours.

Entries after “also recorded” stand apart in the source; their conditions may differ.

In the case of `COC(Cc1ccc(N)cc1)C(=O)O` (stereo not shown) [GED, 3-(4′-aminophenyl)2-methoxypropionic acid], in experiment [1] (0.1 mM, 1 mM, and 30 mM), the “LCT mRNA gene expression relative to unstimulated cells, dose-response” value is given as “increased”. The “LCT mRNA expression relative to control (qPCR)” value in experiment [1] (30 mM, 24 hours, normalized to GAPDH) is reported as “Significant increases; also recorded: induction”. Moreover, the lactase expression entry in experiment [2] is on record as “significant increase”. Further, the lactase activity entry in experiment [2] (data not shown) is on record as “significant increase”.
